Assay results reported in patent publication US9139812B2, “CD49F promoting proliferation, multipotency and reprogramming of adult stem cells through PI3K/AKT/GSK3 pathway” (KANG STEM HOLDINGS CO., LTD, priority 2010, dated 2015).
Entries after “also recorded” stand apart in the source; their conditions may differ.

Columns and labels:
Type in all cases: cell-based, human
[1] = system: adult stem cells; test: Survival of adult stem cells treated with BIO; conditions: BIO treatment
[2] = system: adult stem cells overexpressing CD49f; test: Sphere formation assay in CD49f-overexpressing adult stem cells
Method: (§1) Cells were seeded onto 24-well plate, and then the optical density was measured after 24 hour and 48 hours (*, P<0.05; **, P<0.01). FIG. 9(B) is the result of measuring a size of spheres in the presence or absence of CD49f, LY294002, BIO (*, P<0.05; **, P<0.01). FIG. 9(C) is the result of Western blot analysis for PI3K/AKT/GSK3β. CD49f expression vector was transduced into cells, which were than treated with LY294002 and BIO. Using phospho-specific antibodies for respective proteins the phosphorylation level of protein kinases was identified via Western blotting. 20 μg of protein lysate was loaded onto each well.
(§2) In order to further confirm whether CD49f genetic expression is dependent on the activation of PI3K/AKT/GSK3 pathway, adult stem cells overexpressing CD49f were treated with LY294002 or BIO for 24 hours and 48 hours.

[3] = system: PI3K/AKT/GSK3β; test: Western blot for PI3K, AKT, GSK3β phosphorylation in MSC spheres; conditions: spheres treated with 0.2 μM BIO, compared to monolayer-incubated adult stem cells
Method: FIG. 6(A) is the result of Western blot analysis conducted after 7 days from sphere culture, wherein MSC spheres were collected by means of 40 μm strainer and then washed two times, and the phosphorylation levels of PI3K and its sequential downstream effectors, AKT and GSK3β were analyzed in monolayer cells, spheres, spheres treated with 0.2 μM BIO, and spheres treated with 30 μM LY294002.
(§3) Western blot analysis for PI3K, AKT, and GSK3β was conducted according to the reference (Park et al., 2009). Adult stem cells incubated as monolayer or spheres were crushed in 50 mM Tris-HCl buffer comprising 1% Triton X-100 to which 1 mM phenylmethylsulfonyl fluoride, 1 mM aprotinin, 1 mM leupeptin, 1 mM antipain, and 0.1 mM sodium orthovanadate were added, 137 mM NaCl, 2 mM EDTA, and 0.1% SDS. The content of protein was determined using DC assay kit (Bio-Rad, USA), and then SDS-PAGE was conducted by loading a given amount of protein on 0-15% polyacrylamide gel. Then protein was transferred to nitrocellulose membrane at 50 V, 350 mA for 5 hours. All of antibodies were used according to the manufacturer's instructions, and the protein bands were identified using enhanced chemiluminescence detection kit (Amersham Pharmacia Biotech, Buckinghamshire, UK).

[4] = system: CD49f-overexpressed cells; test: Adipogenic differentiation of CD49f-overexpressed adult stem cells (Oil Red O, RT-PCR)
Method: (§4) Osteogenesis was confirmed through Alizarin Red S staining.
The cell culture of monolayer-incubated cells (Comparative Example 1) and sphere-derived cells (Example 1) was conducted using DMEM containing 5% FBS, 1 μM dexamethasone, 10 μM insulin, 200 μM indomethacin, and 0.5 mM isobutylmethylxanthine to induce differentiation into adipose tissue.
To determine the differentiation degree from fat accumulation present in cells, incubated cells were stained with Oil Red 0, and then Oil Red ° penetrated into cells was extracted with 100% isopropyl alcohol, and quantified with ELISA plate reader (EL800, Bio-Tek Instruments, USA) at OD 500. In addition, using RT-PCR the expression of C/EBP β, AP2, and PPARγ as adipose tissue-specific genes was examined.
(§5) Subsequently, whether in differentiation of adult stem cells into osteocytes and adipocytes CD49f expression can be regulated by PI3K/AKT/GSK3 pathway was identified. CD49f-overexpressed adult stem cells were treated with LY294002 and BIO, and then incubated in osteocyte and adipocyte media, respectively, to induce differentiation into osteogenic and adipogenic lineages.

[5] = system: adult stem cells overexpressing CD49f; test: MTT cell proliferation assay in CD49f-overexpressing adult stem cells; conditions: 24 and 48 hours
Method: as §2
The proliferation potential of cells was measured by MTT assay analysis based on the ability of living cells to convert tetrazolium salt into purple formazan. Adult stem cells were transduced with either control vector or CD49f expression vector. After 24 hours from transduction, cells were seeded onto 24-well plate, and incubated in medium comprising LY294002 and BIO. After culture for 24 hours and 48 hours, […] of MTT stock solution (5 mg/ml, Sigma) was added to each well, and then further incubated at 37° C. for 4 hours. After removing the supernatant, […] of DMSO was added to each well so that insoluble purple formazan crystals can be dissolved […]. Then, cells were transferred to 96-well microplate and then the absorbance was measured using EL800 microplate reader (BIO-TEK Instruments, Winooski, Vt., U.S.A.) at wavelength of 540 nm. All of measurements were repeated three times.

[6] = system: PI3K/AKT/GSK3β; test: Western blot for PI3K/AKT/GSK3β in CD49f-overexpressing adult stem cells
Method: as §1
as §3, with “All of antibodies were used according to the manufacturer's instructions, and the protein bands were identified using enhanced chemiluminescence detection kit (Amersham Pharmacia Biotech, Buckinghamshire, UK).” left out

[7] = system: CD49f-overexpressed MSCs; test: Osteogenic differentiation of CD49f-overexpressed adult stem cells (Alizarin Red S, RT-PCR)
Method: as §4
The monolayer-incubated cells (Comparative Example 1) and sphere-derived cells (Example 1) were incubated in DMEM containing 5% FBS, 50 μM L-ascorbate-2-phosphate, 0.1 μM dexamethasone and […] glycerolphosphate to induce differentiation into bone tissue. The cells were stained with Alizarin Red dye specific to calcium, and then the dye was extracted by treating with 100 mM cetylpyridinium chloride (Sigma-Aldrich) for one hour and used for quantitative analysis. The emission of solubilized Alizarin Red S was measured by means of spectrophotometer at 570 nm.
as §5

[8] = system: adult stem cell spheres; test: Formation of adult stem cell (MSC) spheres with GSK3 or PI3K inhibitor; conditions: after 7 days; BIO 0.2 μM to 0.5 μM; LY294002 30 μM to 50 μM
Method: To form adult stem cell spheres with preventing the adhesion of cells to the bottom of plastic container, 100 mm culture plate coated with 1% agarose (Nunc, Rochester, N.Y.) was used, and 1.5×10^5 adult stem cells were incubated in the growth medium as described in Preparation 1. A total of 15,000 cells were seeded per 1 ml of the medium, and adult stem cell spheres were incubated for one week. To prevent cell loss the culture solution was partially replaced only two times per week. After 7 days, adult stem cell spheres were collected by means of 40 μm pore cell strainer. Adult stem cell spheres as collected were washed with PBS, and gently centrifuged (800 rpm/5 min) for supplementary experiments.
To identify the influence of GSK3 and PI3K signal transduction on sphere formation the inhibitory experiment was practiced. After treatment with BIO (Sigma-Aldrich) as GSK3 inhibitor at the concentration of 0 μM, 0.2 μM, or 0.5 μM, or with […] (Calbiochem, La Jolla, Calif.) as PI3K inhibitor at the concentration of 0 μM, 10 μM, 30 μM, or 50 μM the formation of adult stem cell spheres was observed. The number of adult stem cell spheres was counted after 7 days from culture.

Compound: O=C1Nc2cc(Br)ccc2/C1=C1/Nc2ccccc2/C1=N\O [BIO]
- survival potential of adult stem cells [1]: does not adversely affect
- number of adult stem cell spheres / sphere formation [2]: increased
- phospho-PI3K and phospho-AKT [3]: increased
- mRNA levels of adipocyte transcription factors (C/EBP β, aP2, PPARγ, LEPTIN) ([4]; RT-PCR): inhibited; also recorded: significantly reduced
- lipid accumulation (Oil Red O staining) ([4]; compared to untreated control group): inhibited
- growth rate / cell proliferation (MTT) [5]: higher
- AKT phosphorylation [6]: induced phosphorylation
- GSK3 phosphorylation [6]: induced phosphorylation
- propensity of adult stem cells to differentiate into osteocytes ([7]; BIO treatment): increases
- mineral accumulation (Alizarin Red S staining) ([7]; CD49f-overexpressed MSCs, osteocyte induction): further increased
- mRNA levels of osteocyte-specific markers (BGLAP, VDR, MSX2, OSTEOCALCIN, RUNX2) ([7]; RT-PCR, CD49f-overexpressed adult stem cells): further increased; also recorded: upregulated
- number of adult stem cell spheres formed [8]: significantly increased
- size of adult stem cell spheres [8]: significantly increased
